The text below walks through data of PubChem BioAssay (NCI).

Where “and” joins values, the source holds several entries; their conditions need not be identical. Identical values can stand only once.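 Results reflect a 48-hour exposure of cells in 96-well plates to compound at five concentrations. At the GI50, growth is halved. TGI is the concentration that stops growth completely.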 Where only a bound is given, the exact number is not on record here.

Common to all, as to test: DTP human tumour cell line panel, 48 h
Experiment [1] concerns MDA-MB-231 breast.
Experiment [2] has as its system UO-31 renal.
Experiment [3] deals with TK-10 renal.
The test system of experiment [4] is SK-MEL-2 melanoma.
Experiment [5] has as its system OVCAR-3 ovarian.
The subject of experiment [6] is OVCAR-5 ovarian.
In experiment [7] the test system is BT-549 breast.
Experiment [8] has as its system EKVX NSCLC.
For experiment [9], the system named is M14 melanoma.
Experiment [10] has as its system MOLT-4 leukemia.

The term GI50 denotes the concentration that inhibits growth by half. In general, TGI refers to the concentration at which net growth stops. A lower TGI goes with more potent growth arrest. As for `Nc1n[nH]c2cccc(C#Cc3cccc(C(=O)Nc4ccc(CN5CCOCC5)c(C(F)(F)F)c4)c3)c12`, the GI50 in experiment [1] was 1300 nM; in [2], 1900 nM; in experiment [3] it was 4220 nM; in experiment [4], 2070 nM; in experiment [5] it was 3480 nM; in experiment [6], 2520 nM. For the same compound, the GI50 in experiment [7] is 2140 nM; in experiment [8], 3.42 µM; in [9], 1170 nM; in experiment [10], 1400 nM. Moreover, the TGI is 4.7 µM in experiment [1]; 5.82 µM in experiment [2]; 12.9 µM in [3]; 5.81 µM in [4]; 12.6 µM in experiment [5]; 19.8 µM in [6]. The TGI in experiment [7] worked out at 6.03 µM; in [8], 19 µM; in experiment [9], 3.59 µM; in experiment [10], 4.24 µM.

Consider `COc1cccc(C2SC(N)=Nc3c2c(C)nn3C(=O)c2ccccc2O)c1` (stereo not drawn), for which the TGI in experiment [1] was over 9.64 µM; in experiment [2] it was over 10 µM; in [3] it was over 10 µM; in [4], over 10 µM; in experiment [5], over 7.61 µM; in [6], over 10 µM. For the same compound, the TGI in [7], in experiment [8], in [9] and in experiment [10] was over 10 µM throughout.

For the compound `CCC(=C/[C@H](C)C/C=C/C(C)=C/[C@@H](C)C(=O)[C@@H](C)[C@H](O)[C@@H](C)CC)/C=C/[C@H]1OC(=O)C=C[C@@H]1C`, the GI50 in experiment [1], in [2], in experiment [3], in experiment [4], in [5] and in experiment [6] was under 10 nM throughout. Besides, the GI50 in [7] is under 10 nM; in experiment [8] it was under 0.01 µM; in experiment [9] it was under 10 nM; in experiment [10], under 10 nM. The TGI in experiment [1] amounted to 2.18 µM; in experiment [2], 1.87 µM; in experiment [3], 1.03 µM; in [5], 3.96 µM; in [7], 0.429 µM; in [8], 5.21 µM. Further, the TGI was determined as 0.193 µM in [9] and 0.114 µM in experiment [10].

As to `COc1ccc2nc3cc(Cl)ccc3c(NCCNCC(C)O)c2c1` (stereo not drawn), the GI50 was 1490 nM in [1]; 1730 nM in experiment [2]; 2850 nM in experiment [3]; 2080 nM in [4]; 2380 nM in experiment [5]; 1670 nM in experiment [6]. For the same compound, the GI50 was 7920 nM in [7], 2.6 µM in [8], 1680 nM in [9] and 512 nM in [10]. In addition, the TGI was 4.28 µM in [1]; 4.85 µM in experiment [2]; 8.28 µM in experiment [3]; 4.26 µM in experiment [4]; 8.04 µM in [5]; 6.3 µM in experiment [6]. Further, the TGI is 21.8 µM in [7], 10.7 µM in experiment [8], 3.6 µM in experiment [9] and 11.1 µM in experiment [10].

Regarding `CC1(COc2ccc3c(c2)ncn3-c2ccc3cccc(N4CCC(N)CC4)c3n2)COC1`, the GI50 is 2550 nM and 1880 nM in [1]; 1780 nM and 822 nM in experiment [2]; 1970 nM and 2560 nM in experiment [3]; 4960 nM and 3290 nM in [4]; 2350 nM and 2990 nM in experiment [5]; 3260 nM and 2570 nM in experiment [6]. Also, the GI50 in experiment [7] was 2800 nM and 2640 nM; in [8], 3.02 µM and 3.28 µM; in experiment [9] it was 3550 nM and 2680 nM; in [10], 1560 nM and 1510 nM. Besides, the TGI in experiment [1] is 8.69 µM and 7.63 µM; in [2] it was 5.12 µM and 7.4 µM; in experiment [3], 6.73 µM and > 10 µM; in experiment [4] it was 11.9 µM and 6.85 µM; in experiment [5] it was 4.73 µM and > 10 µM; in experiment [6], 12.8 µM and > 10 µM. Moreover, the TGI is 12.7 µM and 9.74 µM in [7]; 13.2 µM and > 10 µM in [8]; 10.1 µM and 6.77 µM in experiment [9]; 5.71 µM and 5.97 µM in experiment [10].

As for `CCOC(=O)C1=C(C)N(c2ccc(F)cc2F)[C@]2(C#N)C(O)=C(Cl)C(Cl)=C(O)[C@]12C#N`, the GI50 in experiment [1] was over 100000 nM; in experiment [2], over 100000 nM; in experiment [3], over 100000 nM; in experiment [4], over 100000 nM; in experiment [5], over 100000 nM; in [6] it was 20500 nM. Further, the GI50 in experiment [7] was over 100000 nM; in experiment [8], over 100 µM; in [9] it was over 100000 nM; in [10], over 100000 nM. For the same compound, the TGI in experiment [1], in [2], in [3], in experiment [4], in [5] and in experiment [6] was over 100 µM each time. Further, the TGI in experiment [7], in experiment [8], in experiment [9] and in experiment [10] was over 100 µM each time.

Take `Nc1ccc(C2=NNC(=O)Cc3cc4c(cc32)OCCO4)cc1Cl`: the GI50 in experiment [1] is 27100 nM; in [2], 16800 nM; in experiment [3], 18900 nM; in [4], 2810 nM; in experiment [5] it was 1510 nM; in [6], 7960 nM. Also, the GI50 was 5990 nM in experiment [7], 12.7 µM in experiment [8], 2300 nM in [9] and 3050 nM in experiment [10]. In addition, the TGI in experiment [1] is over 50 µM; in [2], over 50 µM; in experiment [3] it was over 50 µM; in experiment [4], 44.6 µM; in experiment [5], 6.47 µM; in experiment [6], over 50 µM. In addition, the TGI in experiment [7], in experiment [8], in experiment [9] and in [10] was over 50 µM in each case.
